{"source": "patent US9426996B2", "about": "“Use of benzoxaboroles as volatile antimicrobial agents on meats, plants, or plant parts” (AgroFresh Inc., priority 2013, dated 2016)", "key": {"Botrytis cinerea [1]": {"system": "Botrytis cinerea", "assay": "in vivo sublimation bioassay on fruit, 1 mg/L (Example 31)", "conditions": "for Incidence (%) / Severity (0-4): 1 mg/L sublimed, three day treatment plus three days at 21° C.", "method": "(§1) To assess the in vivo activity of volatile antimicrobial Compounds A and B (FIG. 1) in fruit, a volatile bioassay is developed using apple, pear, orange, strawberry, grape and blueberry.\n(§2) Two apples, 2 oranges, 2 pears, 8 strawberries, 16 grapes or 30 blueberries (per replicate, in duplicate) are placed in a clamshell with the stem end facing up for all fruits except for strawberry (stem end facing downwards). A fresh wound is inoculated with 20 μL 1×10^6 per mL Penicillium expansum spore suspension (apple and pear), 20 μL 1×10^6 per mL Penicillium digitatum spore suspension (orange), and 20 μL (strawberry and grape) or 10 μL (blueberry) of 1×10^6 per mL Botrytis cinerea spore suspension. The clamshells are placed inside a 117 L Rubbermaid storage box (Cat #2244) with lids closed. […] After treatment, fruits are held for an additional three days at 21° C., then evaluated for disease incidence (mm diameter of browning or water-soaked lesions) and pathogen sporulation (mm diameter) for apple, pear and orange, as well as Botrytis cinerea disease incidence (%) and severity (0 to 4) for strawberry, grape and blueberry, with results summarized in Table 30."}, "Penicillium digitatum": {"system": "Penicillium digitatum", "assay": "in vivo sublimation bioassay on fruit, 1 mg/L (Example 31)", "method": "as §1, §2"}, "Penicillium expansum": {"system": "Penicillium expansum", "assay": "in vivo sublimation bioassay on fruit, 1 mg/L (Example 31)", "conditions": "1 mg/L sublimed, three day treatment plus three days at 21° C.", "method": "as §1, §2"}, "Botrytis cinerea [2]": {"system": "Botrytis cinerea", "assay": "in vivo volatile bioassay using inoculated white carnations", "method": "In order to assess the in vivo activity of volatile antimicrobial Compound A on controlling Botrytis cinerea on ornamental flowers, a volatile bioassay is developed using white carnations.\nFive carnations are placed in an 800 mL jar containing 200 mL of a common commercial flower preservative. Five jars are then placed in a 117 L Rubbermaid storage box (Cat #2244). The petals are uniformly spray-inoculated with 5 mL of 1×10^5 spores/mL of Botrytis cinerea suspension. The tub is closed tightly. For treatment application, Compound A is dissolved in an aqueous 1,2-propylene glycol solution (3:1) and 5 mL of the solution is volatilized into the container using an ES-100-H SmartFog system (Reno, Nev.) through a ½″ side port that is sealed immediately after the application. The flowers are incubated for 3 days at 21° C. After storage, the flowers are evaluated for incidence based on presence of disease on flower petals relative to untreated control flowers for up to 8 days at 21° C., with results summarized in Table 12."}, "Botrytis cinerea [3]": {"system": "Botrytis cinerea", "assay": "in vivo volatile assay on onion leaves", "conditions": "10 mg/L, 21° C. for 3 days", "method": "To test the effect of Compound A (FIG. 1) on vegetables, potato, onion and squash were obtained from a local store, and the surface sterilized with 0.825% sodium hypochlorite (NaOCl). A slice of potato or two leaves of onion were placed in a sterile Petri plate, while whole squash were placed in a sterile 10.8-cup SnapWare airtight container (Model #109842). Each slice of potato was inoculated with 20 μL of a 1×10^5 spores/mL Fusarium sambucinum suspension, while onions were inoculated with 20 μL of a 1×10^6 spores/mL Botrytis cinerea suspension. For inoculation of squash, a small core was removed, and a mycelial plug of Phytophthora capsici was inserted and capped with the core. Compound A was diluted in acetone, and added to a 42.5 mm Whatman #1 filter disk (Cat. No. 1001-042) attached to the inner side of the lid at a rate to achieve a final headspace concentration of 10 mg/L. The acetone was permitted to evaporate for 5 minutes before parafilm sealing the plates or closing the airtight containers. The vegetables were incubated at 21° C. for 3 days, and evaluated for mycelial growth, dry rot, and water-soaked appearance (mm diameter) with results summarized in Table 13."}, "Escherichia coli": {"system": "Escherichia coli", "assay": "in vivo volatile bioassay on fresh beef", "method": "(§3) In order to assess the in vivo activity of volatile antimicrobial Compound A, a volatile bioassay is developed to evaluate the control of Escherichia coli and Salmonella enterica on fresh beef. The beef is washed to remove any natural inoculum by rinsing in warm water for 2 minutes. Two strips, single layer, are placed in a sterile 10.8-cup SnapWare airtight container (Model #109842).\n(§4) Each strip is inoculated on the surface by placing 20 μL of either E. coli or S. enterica cell suspensions that are adjusted to an optical density of 0.35 (600 nm), and further diluted 1/10. For determination of efficacy, Compound A powder is introduced into the container with a sublimation device (copper tube heated to 200° C. with fan flow at 0.5 liters per minute (L/min)) at a rate required to achieve a final headspace concentration of 100 mg/L. The containers and their contents are then incubated for 2 days at 21° C. After treatment, the beef is washed, and the wash is collected, serially diluted, plated on nutrient agar, and then incubated for an additional 24 hours at 37° C. Bacterial colonies are counted and expressed as colony forming units (CFU/mL), with the log reduction calculated relative to the control."}, "Salmonella enterica": {"system": "Salmonella enterica", "assay": "in vivo volatile bioassay on fresh beef", "conditions": "S. enterica from beef; 100 mg/L headspace; 2 days at 21° C.", "method": "as §3, §4"}, "Alternaria alternata": {"system": "Alternaria alternata", "assay": "combination treatment with 1-MCP on tomato", "type": "in vivo", "conditions": "tomatoes", "method": "Each tomato fruit is wounded three times and inoculated with 1×10^6 spores/mL of Alternaria alternata and then placed in a 117 L Rubbermaid storage box (Cat #2244) with two small fans placed in opposite ends of the container. A 1000 ppb v/v 1-MCP treatment is applied (AgroFresh, Springhouse, Pa.) for 24 hours at 21° C. After completion of the 1-MCP treatment, the tomatoes are removed and placed in a 10.8-cup […] airtight container (Model #109842). […] The tomatoes are incubated for three days at 21° C., then evaluated for an additional three days at 21° C. for disease incidence and severity. Results listed in Table 29 show good activity against Alternaria alternata infection of tomato."}, "[4]": {"conditions": "Orange, 1 mg/L sublimed, three day treatment plus three days at 21° C."}}, "data": [{"smiles": "OB1OCc2cc(F)ccc21", "note": "[Compound A]", "values": [{"measurement": "in vivo antimicrobial control of B. cinerea", "setting": "Botrytis cinerea [1]; 1 mg/L, volatile fungicide on different hosts", "value": 100, "unit": "%"}, {"measurement": "Incidence (%)", "setting": "Botrytis cinerea [1]; Blueberry", "value": 0.0, "unit": "%"}, {"measurement": "Severity (0-4)", "setting": "Botrytis cinerea [1]; Blueberry", "value": 0.0}, {"measurement": "Incidence (%)", "setting": "Botrytis cinerea [1]; Grape", "value": 0.0, "unit": "%"}, {"measurement": "Severity (0-4)", "setting": "Botrytis cinerea [1]; Grape", "value": 0.0}, {"measurement": "Incidence (%)", "setting": "Botrytis cinerea [1]; Strawberry", "value": 0.0, "unit": "%"}, {"measurement": "Severity (0-4)", "setting": "Botrytis cinerea [1]; Strawberry", "value": 0.0}, {"measurement": "in vivo antimicrobial control of P. digitatum", "setting": "Penicillium digitatum; 1 mg/L, volatile fungicide", "value": 100, "unit": "%"}, {"measurement": "Sporulation (mm)", "setting": "Penicillium digitatum; [4]", "value": 0.0, "unit": "mm"}, {"measurement": "Water soaked lesion", "setting": "Penicillium digitatum; [4]", "value": 0.0, "unit": "mm"}, {"measurement": "Browning (mm)", "setting": "Penicillium expansum; Apple", "value": 0.8, "unit": "mm"}, {"measurement": "Sporulation (mm)", "setting": "Penicillium expansum; Apple", "value": 0.0, "unit": "mm"}, {"measurement": "Browning (mm)", "setting": "Penicillium expansum; Pear", "value": 4.7, "unit": "mm"}, {"measurement": "Sporulation (mm)", "setting": "Penicillium expansum; Pear", "value": 0.0, "unit": "mm"}, {"measurement": "Disease incidence (%) on Petals", "setting": "Botrytis cinerea [2]; 0.04 mg/L, Day 0", "value": 0, "unit": "%"}, {"measurement": "Disease incidence (%) on Petals", "setting": "Botrytis cinerea [2]; 0.04 mg/L, Day 1", "value": 0, "unit": "%"}, {"measurement": "Disease incidence (%) on Petals", "setting": "Botrytis cinerea [2]; 0.04 mg/L, Day 2", "value": 16, "unit": "%"}, {"measurement": "Disease incidence (%) on Petals", "setting": "Botrytis cinerea [2]; 0.04 mg/L, Day 3", "value": 40, "unit": "%"}, {"measurement": "Disease incidence (%) on Petals", "setting": "Botrytis cinerea [2]; 0.04 mg/L, Day 8", "value": 92, "unit": "%"}, {"measurement": "Disease incidence (%) on Petals", "setting": "Botrytis cinerea [2]; 0.2 mg/L, Day 0", "value": 0, "unit": "%"}, {"measurement": "Disease incidence (%) on Petals", "setting": "Botrytis cinerea [2]; 0.2 mg/L, Day 1", "value": 8, "unit": "%"}, {"measurement": "Disease incidence (%) on Petals", "setting": "Botrytis cinerea [2]; 0.2 mg/L, Day 2", "value": 20, "unit": "%"}, {"measurement": "Disease incidence (%) on Petals", "setting": "Botrytis cinerea [2]; 0.2 mg/L, Day 3", "value": 16, "unit": "%"}, {"measurement": "Disease incidence (%) on Petals", "setting": "Botrytis cinerea [2]; 0.2 mg/L, Day 8", "value": 36, "unit": "%"}, {"measurement": "Disease incidence (%) on Petals", "setting": "Botrytis cinerea [2]; 1 mg/L, Day 0", "value": 0, "unit": "%"}, {"measurement": "Disease incidence (%) on Petals", "setting": "Botrytis cinerea [2]; 1 mg/L, Day 1", "value": 0, "unit": "%"}, {"measurement": "Disease incidence (%) on Petals", "setting": "Botrytis cinerea [2]; 1 mg/L, Day 2", "value": 0, "unit": "%"}, {"measurement": "Disease incidence (%) on Petals", "setting": "Botrytis cinerea [2]; 1 mg/L, Day 3", "value": 4, "unit": "%"}, {"measurement": "Disease incidence (%) on Petals", "setting": "Botrytis cinerea [2]; 1 mg/L, Day 8", "value": 16, "unit": "%"}, {"measurement": "Water soaked", "setting": "Botrytis cinerea [3]", "value": 0, "unit": "mm"}, {"measurement": "Log CFU/mL", "setting": "Escherichia coli; E. coli from beef, 100 mg/L headspace, 2 days at 21° C.", "value": 5.09, "unit": "Log CFU/mL"}, {"measurement": "Log reduction", "setting": "Escherichia coli; E. coli from beef, 100 mg/L, relative to the control", "value": 3.17, "unit": "log"}, {"measurement": "reduction of E. coli in percent", "setting": "Escherichia coli; beef, 100 mg/L, relative to the control", "value": "> 99.9", "unit": "%"}, {"measurement": "Log CFU/mL", "setting": "Salmonella enterica", "value": 4.95, "unit": "Log CFU/mL"}, {"measurement": "Diameter of the rot (mm)", "setting": "Alternaria alternata; 0.4 mg/L", "value": 3.8, "unit": "mm"}, {"measurement": "Diameter of the rot (mm)", "setting": "Alternaria alternata; 2 mg/L", "value": 0.0, "unit": "mm"}]}]}
